Laboratory results taken from ChEMBL document CHEMBL5726561, “Compounds and pharmaceutical compositions thereof for the treatment of inflammatory disorders” (2017).

Biological target: Autotaxin (Homo sapiens, UniProt Q13822)
Assay: Biochemical Assay: Compound IC50 values are determined in a fluorescent hENPP2 (UniProtKB/SwissProt Sequence ref Q13822) biochemical assay using the fluorogenic autotaxin substrate FS-3 as substrate. FS-3 is a doubly labeled analog of LPC wherein the fluorophore is quenched through intramolecular energy transfer. Without hENPP2, the emission of the probe is quenched. If the substrate is hydrolyzed by hENPP2, the emission of the probe is not quenched anymore resulting in a fluorescence increase. Inhibition of hENPP2 by compounds will result in a decrease of the signal. 10 uL of a dilution series of compound, starting from 20 uM highest concentration, dilution, is added to the wells. hENPP2 is used at a final concentration of 0.4 ug/mL or 0.64 ug/mL (it will be appreciated by the skilled person that the potency read out is independent of the enzyme concentration). The enzyme is diluted in 50 mM Tris-HCl pH 8.0, 250 mM NaCl, 5 mM KCl, 1 mM MgCl2, 1 mM CaCl2, 0.1% fatty acid free BSA in a total volume of 20 uL. Enzyme mixture is added to compounds and the resulting mixture is incubated for 30 min at room temperature under shaking. The reaction is started by the addition of 20 uL of 0.75 uM FS-3 diluted in the same buffer as described above and the mixture is incubated at 30° C. for 30 min. Fluorescence is read on the Envision (Excitation 485 nm, emission 520 nm).

CCc1nc2ccc(N3CCC(NC(=O)C4CCOCC4)CC3)nn2c1N(C)c1nc(-c2ccc(F)cc2)cs1
IC50: < 1 µM
